# Activity calls are given as the source filed them. The rule behind the calls is not given here.
# System: T1, Translin-associated protein X (Homo sapiens), Q99598 [E126A]
# T1 sequence (whole entry): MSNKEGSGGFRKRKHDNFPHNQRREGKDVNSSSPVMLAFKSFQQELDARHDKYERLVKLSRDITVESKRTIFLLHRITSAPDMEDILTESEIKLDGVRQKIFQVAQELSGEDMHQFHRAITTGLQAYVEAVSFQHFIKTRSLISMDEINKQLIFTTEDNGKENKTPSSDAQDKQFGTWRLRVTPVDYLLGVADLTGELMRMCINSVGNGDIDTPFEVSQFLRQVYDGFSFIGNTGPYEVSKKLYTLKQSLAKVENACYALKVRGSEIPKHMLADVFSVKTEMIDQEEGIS
# Assay: Inhibition of wild type His-tagged translin/trax E126A mutant (unknown origin) coexpressed in Escherichia coli BL21 cells using RNase Alert as substrate at 30 uM incubated for 10 mins prior to substrate addition monitored over 60 mins by fluorescence assay
row,SMILES,inhibition
1,Cc1cc(O)c(C=O)c2c1C(=O)Oc1c(C)c(O)c3c(c1O2)C(O)OC3=O (stereo unspecified),66%
2,O=c1oc2c(O)c(O)cc3c(=O)oc4c(O)c(O)cc1c4c23 [ELLAGIC ACID],94%
3,O=C(OC[C@H]1O[C@@H](OC(=O)c2cc(O)c(O)c(OC(=O)c3cc(O)c(O)c(O)c3)c2)[C@H](OC(=O)c2cc(O)c(O)c(OC(=O)c3cc(O)c(O)c(O)c3)c2)[C@@H](OC(=O)c2cc(O)c(O)c(OC(=O)c3cc(O)c(O)c(O)c3)c2)[C@@H]1OC(=O)c1cc(O)c(O)c(OC(=O)c2cc(O)c(O)c(O)c2)c1)c1cc(O)c(O)c(OC(=O)c2cc(O)c(O)c(O)c2)c1,103%
4,O=C(O[C@@H]1Cc2c(O)cc(O)cc2O[C@@H]1c1cc(O)c(O)c(O)c1)c1cc(O)c(O)c(O)c1,88%
5,CC(C)(O/N=C(\C(=O)N[C@@H]1C(=O)N2C(C(=O)[O-])=C(C[n+]3ccccc3)CS[C@H]12)c1csc(N)n1)C(=O)O,100%
6,Oc1cc2c(cc1O)[C@@H]1c3ccc(O)c(O)c3OC[C@]1(O)C2,63%
7,O=c1c(-c2cc(O)c(O)c(O)c2)coc2cc(O)c(O)c(O)c12,78%
8,O=C1C(O)=C(O)C(=O)C(O)=C1O,66%
9,Cc1ccc(C(=O)Nc2ccc(S(=O)(=O)O)c3cc(S(=O)(=O)O)cc(S(=O)(=O)O)c23)cc1NC(=O)c1cccc(NC(=O)Nc2cccc(C(=O)Nc3cc(C(=O)Nc4ccc(S(=O)(=O)O)c5cc(S(=O)(=O)O)cc(S(=O)(=O)O)c45)ccc3C)c2)c1,61%
10,COc1cc(C)c2c(c1C=O)Oc1c(c(C)c(O)c3c1C(O)OC3=O)OC2=O (stereo unspecified),58%
11,O=c1c(O)cc(C2Oc3cc(O)cc(O)c3CC2O)cc2cc(O)c(O)c(O)c12 (stereo unspecified),75%
12,CCCCC(CC)CNC(=N)NC(=N)NCCCCCCNC(=N)NC(=N)NCC(CC)CCCC (stereo unspecified),103%
13,O=c1c(O)c(-c2ccc(O)c(O)c2)oc2cc(O)cc(O)c12,58%
14,Oc1c(Cl)cc(Cl)c(Cl)c1Cc1c(O)c(Cl)cc(Cl)c1Cl,66%
15,O=C(Oc1cc(O)cc2c1C[C@@H](OC(=O)c1cc(O)c(O)c(O)c1)[C@@H](c1cc(O)c(O)c(O)c1)O2)c1cc(O)c(O)c(O)c1,83%
16,CCCCCCCCCCCCCCCC[n+]1ccccc1,56%
17,Oc1cc(O)c2c(c1)O[C@H](c1cc(O)c(O)c(O)c1)[C@H](O)C2,68%
18,CCCCCCCCCCCCCCCCC(C(=O)O)C(O)(CC(=O)O)C(=O)O (stereo unspecified),58%
19,O=S(=O)(O)c1cc(N=C=S)ccc1/C=C/c1ccc(N=C=S)cc1S(=O)(=O)O,103%

# Target: Translin-associated protein X (Homo sapiens, UniProt Q99598, E126A)
# Assay: Inhibition of wild type His-tagged translin/trax E126A mutant (unknown origin) coexpressed in Escherichia coli BL21 cells assessed as reduction in pre-miRNA degradation by gel electrophoresis assay
row,SMILES,IC50
1,O=c1oc2c(O)c(O)cc3c(=O)oc4c(O)c(O)cc1c4c23 [ELLAGIC ACID],3.5 µM

# System: T1, Translin-associated protein X (Homo sapiens), Q99598 [E126A]
# Assay: Inhibition of wild type His-tagged translin/trax E126A mutant (unknown origin) coexpressed in Escherichia coli BL21 cells assessed as increase in Dicer-mediated 5'-gamma32P-ATP labeled pre-miRNA processing at 5 uM after 15 mins by gel electrophoresis assay
row,SMILES,inhibition
1,O=c1oc2c(O)c(O)cc3c(=O)oc4c(O)c(O)cc1c4c23 [ELLAGIC ACID],Active

# Source: ChEMBL document CHEMBL3853344, “A druggable target for rescuing microRNA defects” (Bioorg Med Chem Lett, 2016)
